Experimental data published in paper PMC7006784, “The combination of salvianolic acid A with latamoxef completely protects mice against lethal pneumonia caused by methicillin-resistant Staphylococcus aureus” (Emerging Microbes & Infections, 2020).

Experiments:
[1] = system: S. aureus USA300; assay: Pneumonia model, survival; type: in vivo, C57BL/6J mice; conditions: mice, 2 × 10^9 CFU i.n.; s.c. 100 mg/kg Sal A and/or 75 mg/kg latamoxef every 12 h, 96 h; PBS control 10%
Experimental: The animal experiments were performed using 6- to 8-week-old female C57BL/6J mice obtained from the Experimental Animal Center of Jilin University and conducted according to the guidelines of the Animal Care and Use Committee of Jilin University. The mouse S. aureus pneumonia model was generated as described previously. Briefly, the mice were anaesthetized with ether and inoculated with 30 μl bacterial resuspension via the left nare. The mice were then held upright to allow the bacteria to be inhaled into the lungs. For the survival assessment, groups of 10 mice were challenged with 2 × 10^9 CFU S. aureus. One hour after intranasal inoculation, the mice were subcutaneously injected with 100 mg/kg of Sal A, 75 mg/kg of latamoxef or 100 mg/kg of Sal A plus 75 mg/kg of latamoxef at 12 h intervals, and survival was assessed for 96 h. For the bacterial load, histopathological, and bronchoalveolar lavage fluid (BALF) experiments, mice were inoculated with 1 × 10^9 CFU S. aureus. The mice were then given a subcutaneous injection of 100 mg/kg Sal A, 75 mg/kg latamoxef or a combination of 100 mg/kg Sal A and 75 mg/kg every 12 h. After 24 h, the left lung of each anaesthetized mouse was aseptically excised and homogenized, and the CFU was determined by serial dilutions. […]

[2] = system: S. aureus USA300; assay: Pneumonia model, bacterial load and histopathology of the lungs; type: in vivo, C57BL/6J mice; conditions: mice, 1 × 10^9 CFU i.n., 24 h
Experimental: The animal experiments were performed using 6- to 8-week-old female C57BL/6J mice obtained from the Experimental Animal Center of Jilin University and conducted according to the guidelines of the Animal Care and Use Committee of Jilin University. The mouse S. aureus pneumonia model was generated as described previously. Briefly, the mice were anaesthetized with ether and inoculated with 30 μl bacterial resuspension via the left nare. The mice were then held upright to allow the bacteria to be inhaled into the lungs. For the survival assessment, groups of 10 mice were challenged with 2 × 10^9 CFU S. aureus. One hour after intranasal inoculation, the mice were subcutaneously injected with 100 mg/kg of Sal A, 75 mg/kg of latamoxef or 100 mg/kg of Sal A plus 75 mg/kg of latamoxef at 12 h intervals, and survival was assessed for 96 h. For the bacterial load, histopathological, and bronchoalveolar lavage fluid (BALF) experiments, mice were inoculated with 1 × 10^9 CFU S. aureus. The mice were then given a subcutaneous injection of 100 mg/kg Sal A, 75 mg/kg latamoxef or a combination of 100 mg/kg Sal A and 75 mg/kg every 12 h. After 24 h, the left lung of each anaesthetized mouse was aseptically excised and homogenized, and the CFU was determined by serial dilutions. The right lungs from each group of mice were excised for histopathological analysis, and the samples were fixed in 10% formalin and stained with haematoxylin and eosin (H&E).

CO[C@@]1(NC(=O)C(C(=O)O)c2ccc(O)cc2)C(=O)N2C(C(=O)O)=C(CSc3nnnn3C)CO[C@@H]21 (stereo partly drawn) [latamoxef]
survival rate [1]: 50% | viable MRSA loads in the lungs in comparison with the control ([2]; s.c. 100 mg/kg Sal A and/or 75 mg/kg latamoxef every 12 h): significantly decreased | pulmonary inflammation (histopathology of the lungs) ([2]; s.c. 100 mg/kg Sal A and/or 75 mg/kg latamoxef, H&E): alleviated
